Series [1] has as its system human dermal fibroblasts. As to the kind of experiment: CellTiter-Fluor cell viability assay. In kind it is cell-based. Conditions: human fibroblasts, higher concentrations. How it is done: To observe the cellular viability of PUR/D-AA composites, human dermal fibroblasts and human osteoblasts (PromoCell) were maintained in Dulbecco's Modified Eagle Medium (DMEM; Invitrogen) supplemented with 10% Fetal Bovine Serum (FBS) and 1× penicillin/streptomycin. Human epidermal keratinocytes (HEK-001; ATCC CRL-2404) were maintained in Keratinocyte-serum free media (GIBCO) supplemented with 5 ng/mL human recombinant EGF and 2 mM L-glutamine. All cell lines were cultured at 37° C. in 5% CO2. Prior to each assay cells were seeded at 100% confluence in black-clear bottom 96-well plates. After 24 h, cells were exposed to media containing D-AA, 50 mM-1 nM, and incubated for 24-48 h at 37° C. in 5% CO2. Following treatment, cells were washed, resuspended in 100 μL of sterile saline and viability was determined using the CellTiter-Flour Cell Viability Assay (Promega) following the manufacturer's instructions. Viability assays were performed in triplicate with a minimum of 3 replicates. Viability was reported as the percentage of viable cells relative to untreated controls.
Human dermal fibroblasts and osteoblasts (PromoCell, Heidelberg, Germany) were maintained in Dulbecco's Modified Eagle Medium (DMEM; Invitrogen, Grand Island, N.Y.) supplemented with 10% Fetal Bovine Serum (FBS) and 1× penicillin/streptomycin at 37° C. in 5% CO2. Prior to each assay, cells were seeded at 100% confluence in black-clear bottom 96-well plates. After 24 h cells were exposed to media containing D-AA (1 nM-50 mM) and incubated for 24 h. Following treatment, cells were washed, re-suspended in 100 μL of sterile saline, and assessed for viability using the CellTiter-Fluor Cell Viability Assay (Promega, Madison, Wis.) following the manufacturer's instructions. Viability assays were performed in triplicate with a minimum of four replicates. Viability was reported as the percentage of viable cells relative to untreated controls.

The nature of series [2]: Release of D-AAs from PUR scaffolds in PBS (HPLC). In kind it is physicochemical. As to the method: Also, kinetic release assays were performed on the PUR scaffolds by incorporating 10 wt % of a 1:1:1 mixture of D-Tr:D-Pro:D-Met incubated in PBS for up to 8 weeks. The medium was be sampled twice weekly and analyzed for D-AAs by HPLC.
PUR scaffolds incorporating 10 wt % of a 1:1:1 mixture of D-Met:D-Pro:D-Trp were incubated in PBS at 37° C. under static conditions for up to 8 weeks. This mixture was evaluated in vitro, in vivo and in the release kinetics tests to account for potential interactions between D-AAs during release. The medium was sampled on days 1, 2, 4, 7, 10, 14, 21, and 28 and analyzed for D-AAs by HPLC using a system equipped with a Waters 1525 binary pump and a 2487 Dual-Absorbance Detector at 200 nm. Samples of released D-AAs were eluted through an Atlantis HILIC Silica column (5 μm particle size, 4.6 mm diameter×250 mm length) using an isocratic mobile phase flowing at 1 mL/min. The mobile phase contained 2.5 mM potassium dihydrogen phosphate with pH=2.85 (A) and Acetonitrile (B) at a ratio of A25:B75. The column oven temperature was maintained at 30° C. Sample concentration was determined in reference to an external standard curve using the Waters Breeze system. Standard curves were prepared in the following concentration ranges: (1) 7.8 μg/mL to 1 mg/mL for D-Met and D-Pro and (2) […] to 100 μg/mL for D-Trp.

Series [3] concerns P. aeruginosa clinical isolate biofilms. As to the kind of experiment: Biofilm dispersal and prevention, crystal violet 96-well assay (Example 1). It is filed as cell-based, Pseudomonas aeruginosa. The settings on record: 5 mM. How it is done: (§1) Biofilm formation was performed under static conditions in polystyrene 96-well plates (Corning, Inc., Corning, N.Y.). Briefly, overnight bacterial cultures were diluted to an OD600 of 0.1 in CA-MHB and 10 μL was added to individual wells filled with 190 μl of media and incubated at 37° C. for 48 h without shaking for biofilm growth. Following incubation, culture media was removed and 200 μL media containing individual D-AA at concentrations of 5 mM-1 nM was added. Plates were incubated for an additional 24 h at 37° C. After treatment, plates were gently washed with 1× phosphate buffered saline (PBS; pH 7.4) to remove non-adherent bacteria. Biofilms (i.e. attached cells) were then stained with 0.1% (w/v) crystal violet for 10 min, washed, followed by solubilization of crystal violet with 33% (v/v) acetic acid for 10 min. Biofilm biomass was determined by measuring the absorbance at 570 nm using a microtiter plate reader. For assays measuring the ability of D-AA to block biofilm formation, cells were grown under biofilm conditions as above in the presence of media containing D-AA. Three independent experiments with a minimum of 4 replicates were performed for each experimental assay. Representative images of the plates of CV stained biofilms following treatment with D-AA, prior to solubilization, were taken using a digital camera.

Series [4] has as its system S. aureus clinical isolates biofilms. Nature of the series: Biofilm dispersal and prevention, crystal violet assay (Example 3). It is filed as cell-based. How it is done: Like in Example 1, biofilm formation was assessed under static conditions using polystyrene 96-well plates (Corning, Inc.). Overnight bacterial cultures were diluted to an OD600 of 0.1 in TSB (˜10^7 CFU/mL), and 20 μL were added to individual wells filled with 180 μL of media and incubated at 37° C. for 48 h. To assess the biofilm dispersal activity of D-AAs, the culture medium from biofilms was removed after 48 h and 200 μL fresh medium containing either an individual D-AA or an equimolar mixture of D-AAs (1:1:1: D-Met:D-Pro:D-Trp) were added at the indicated concentrations. After treatment with D-AA(s) for 24 h, plates were gently washed with 1× phosphate buffered saline (PBS) to remove unattached cells, stained with 0.1% (w/v) crystal violet (Sigma Aldrich) for 10 min, rinsed with PBS, and then solubilized with 80% (v/v) ethanol. Biofilm biomass was determined by measuring the absorbance of solubilized stain at 570 nm using a microtiter plate reader. For assays measuring the ability of D-AA to block biofilm formation, cells were grown under biofilm conditions as above in the presence of media containing D-AAs. Representative images of the plates of CV-stained biofilms following treatment with D-AA prior to solubilization were taken using a digital camera. All assays were repeated in triplicate with a minimum of four technical replicates.

The subject of series [5] is S. aureus clinical isolate biofilms. As to the kind of experiment: Biofilm dispersal and prevention, crystal violet 96-well assay (Example 1). It is filed as cell-based, Staphylococcus aureus. The settings on record: 5 mM. As to the method: as §1
Series [6] concerns planktonic P. aeruginosa clinical strains (18189, 418). As to the kind of experiment: MIC by CLSI broth microdilution, planktonic bacteria. It is filed as cell-based, Pseudomonas aeruginosa. The settings on record: * = with 5 mM D-AA; for MIC: Pseudomonas aeruginosa. How it is done: Overnight cultures of bacterial strains were diluted to a final concentration of 5×10^5 CFU/ml in MHB-II. The resulting bacterial suspension was aliquoted (100 μL) into polystyrene round-bottom 96-well plates containing 100 μL of a 2× concentration of a previously serially diluted (1:2) antibiotic. Each antimicrobial tested was serially diluted 10 times. Following the addition of bacteria, the microtiter plate was covered and was incubated under stationary conditions at 37° C. in the presence of 1× antibiotics. […] MICs of antibiotics were determined in triplicate according to the Clinical and Laboratory Standards Institute (CLSI) broth microdilution as described by the performance standards for antimicrobial susceptibility testing (M100-S22, January 2012).
(Dilution methods test growth across graded concentrations, often in twofold steps.)

The subject of series [7] is biofilm derived P. aeruginosa clinical strains (18189, 418). Nature of the series: Biofilm susceptibility, Calgary Biofilm device (MBEC plates): MBIC and viable CFU. Conditions: * = with 5 mM D-AA; for Biofilm (MBIC) 418: P. aeruginosa 418 biofilm; for Biofilm (MBIC) 18189: P. aeruginosa 18189 biofilm. It is filed as cell-based, Pseudomonas aeruginosa. How it is done: Biofilm susceptibility to antimicrobial agents in the presence and absence of D-AA was determined using the Calgary Biofilm device. Briefly, biofilms from overnight cultures were established as above on individual pegs of the minimum biofilm eradication concentration (MBEC) plates (Innovotech, Canada) with agitation for 48 h at 37° C. Following incubation, the lid with pegs was removed from the incubation plate, washed by re-suspending pegs into plate with wells containing 200 μl of 1×PBS, then placed into a 96-well challenge plate containing pre-diluted antibiotics with or without an […] for an additional 24 h at 37° C. Following challenge plates were washed, and the attached viable cells on PEGs within the biofilm were determined by plating serial dilutions onto blood agar plates (Remel). Corresponding minimal biofilm inhibitory concentration (MBIC) was also determined by measuring the optical density in individual wells of the challenge plate at 600 nm. The lowest concentration of antibiotic for which an optical density of <0.100 was recorded as the MBIC. For each antibiotic, the MBIC was determined in the presence or absence of a mixture of D-AA (D-Phenylalanine, D-Methionine, and D-Tryptophan) at an equimolar concentration of 5 mM. Three independent experiments were performed for each of these assays, with a minimum of 3 replicates.

Setting [8] is: P. aeruginosa 418, read-out: Planktonic (MIC) 418.
[9] abbreviates: P. aeruginosa 18189, read-out: Planktonic (MIC) 18189.

In general, MIC refers to the lowest concentration found to suppress growth.

≈ marks a conversion by molar mass, not a printed value. Like-named read-outs stand apart in the source and are kept apart here. Some results are limits rather than exact numbers.

In the case of `CSCC[C@@H](N)C(=O)O` [D-Met, D-methionine], the cytotoxicity result in series [1] is recorded as “cytotoxicity was also observed”. Also, in series [2] (PUR scaffold with 10 wt % D-AA mixture, PBS 37° C.), the “cumulative release by day 14” value is reported as roughly 100%. This molecule also showed a burst release in series [2] (day 1, PUR scaffold with 10 wt % 1:1:1 D-Met:D-Pro:D-Trp, PBS 37° C.) of 60%. For the same molecule, the “b parameter of Weibull model” value in series [2] (fit of D-AA release data) was 0.56. The “biofilm dispersal against panel of clinical isolates (biofilm biomass OD570)” value in series [3] (P. aeruginosa clinical isolates, FIGS. 3A, 3C) is recorded as “capable of significantly dispersing biofilm formation”; in series [5] (S. aureus clinical isolates, FIGS. 3A, 3C) it was “capable of significantly dispersing biofilm formation”. Also, the “biofilm dispersal in pre-screening of eight D-AAs” value is “relatively more effective at dispersing biofilms” in series [3] (pre-formed P. aeruginosa biofilms, FIG. 1) and “relatively more effective at dispersing biofilms” in series [5] (pre-formed S. aureus biofilms, FIG. 1). Also, in series [4] (panel of clinical isolates of methicillin-resistant S. aureus (n=5), 5 mM, 24 h, FIGS. 8A, 8C), the “dispersal of established biofilms (biofilm biomass)” value is reported as “effective at dispersing established biofilms”. Moreover, the “biofilm dispersal in pre-screening of eight individual D-AAs” value in series [4] (pre-formed biofilms of four clinical isolates, 0.001-50 mM, FIG. 7) is given as “effective at dispersing biofilms”.

As for `NCC[C@H](O)C(=O)N[C@@H]1C[C@H](N)[C@@H](O[C@H]2O[C@H](CN)[C@@H](O)[C@H](O)[C@H]2O)[C@H](O)[C@H]1O[C@H]1O[C@H](CO)[C@@H](O)[C@H](N)[C@H]1O` [AMK, Amikacin], the “Planktonic (MIC) 418” value in series [6] (P. aeruginosa 418) is 16 µg/mL. Besides, the “Planktonic (MIC) 18189” value in series [6] (P. aeruginosa 18189) came to 16 µg/mL. Moreover, in series [6] (setting [8]), the MIC was 16 µg/mL (≈ 27.3 µM). Besides, the MIC in series [6] (setting [9]) came out at 16 µg/mL (≈ 27.3 µM). Also, in series [7], the “Biofilm (MBIC) 418” value was greater than 256 µg/mL and the “Biofilm (MBIC) 18189” value was greater than 256 µg/mL.

Take `C[C@@H](O)[C@H]1C(=O)N2C(C(=O)O)=C(SCCN=CN)C[C@H]12` [IMI, Imipenem]: in series [6] (P. aeruginosa 418), the “Planktonic (MIC) 418” value was 64 µg/mL. Also, the “Planktonic (MIC) 18189” value in series [6] (P. aeruginosa 18189) worked out at 128 µg/mL. The MIC turned out to be 128 µg/mL (≈ 428 µM) in series [6] (setting [8]) and 64 µg/mL (≈ 214 µM) in series [6] (setting [9]). The “Biofilm (MBIC) 418” value in series [7] is greater than 128 µg/mL. Also, in series [7], the “Biofilm (MBIC) 18189” value was greater than 128 µg/mL.

Source of the values: patent US20150182667A1, “Composition with Biofilm Dispersal Agents” (Vanderbilt University, priority 2012, published 2015).
